Assay results taken from patent publication EP0232423A1, “CIRCULATION IMPROVING AGENT” (GRELAN PHARMACEUTICAL CO., LTD., priority 1985, dated 1987).
Where a name gives a salt, the structure may show the parent alone.

What was measured:
platelets of rabbit = assay: Fluidity of platelet membrane (fluorescence polarization); assay type: cell-based; set-up: Fluorescence polarization: unit not given here; settings: for Fluorescence polarization: fluidity increases as value decreases
Source text: The activity of compound (I) (lactate) and ifenprodil tartrate against the fluidity of platelet membrane was examined according to a known method (Biochimica et Biophysica Acta, vol. 798, page 210, 1984) using platelets of rabbit and using n-butyl alcohol as a positive control.

isolated basilar artery = assay: Relaxation of isolated basilar artery contracted by 50 mM KCl; assay type: cell-based, Mongrel dogs; settings: Canis lupus familiaris, 50 mM KCl contraction
Procedure: Mongrel dogs of either sex (body weight 10-17 kg) were killed by bleeding under anesthetization with pentobarbital sodium (tradename: Nembutai ® Abbott Co., USA). Thereafter, the basilar and femoral arteries were extracted and attached blood and connective tissues were carefully removed in a dish filled with Krebs bicarbonate solution (composition: NaCl 117.7 mM, KC1 4.7 mM, CaCl2 2.5 mM, MgSo4 1.2 mM, glucose 10 mM, NaHCO3 24.4 mM). Thereafter, ring preparations were made therefrom. This preparation was suspended in a bathing tube of 10 ml filled with Krebs bicarbonate solution aerated with 95 % 02 and 5 % C02.
Then, samples of basilar and femoral arteries were contracted by application of 50 mM KC1. After confirming that the contraction was sustained, (a) compound (I) (erythro form) lactate, (b) compound (I) (threo form) lactate and (c) ifenprodil; [2-(4-benzyl- piperidino-l-(4-hydroxyphenyl)propane-l-ol] tartrate were, respectively, administered as test compounds and the dose-relaxation response was examined.
A strain gauge transducer (model SB-lT manufactured by Nihon Koden Co.) was employed for recording of change of tension and isometric contraction was recorded on a recorder (model QPD 53 made by Hitachi Ltd . ) .

CC(C(O)c1ccc(O)cc1)N1CCC(Cc2ccccc2)CC1 (stereo not shown) [Ifenprodil tartrate]
effect on fluidity of platelet membrane (platelets of rabbit): no such activity | Fluorescence polarization (platelets of rabbit; 1 µM): 7 | Fluorescence polarization (platelets of rabbit; 10 µM): 13±7 | Fluorescence polarization (platelets of rabbit; 100 µM): 3±3 | inhibition at 50 µM (isolated basilar artery; 5 x 10^-5 M, mean, n = 4 - 5): 96.6% | inhibition at 100 µM (isolated basilar artery; 10^-4 M, mean, n = 4 - 5): 100% | inhibition at 10 µM (isolated basilar artery; 10^-5 M, mean, n = 4 - 5): 44.1% | inhibition at 1 µM (isolated basilar artery; 10^-6 M, mean, n = 4 - 5): 5.1% | inhibition at 0.1 µM (isolated basilar artery; 10^-7 M, mean, n = 4 - 5): 0.9% | EC50 (isolated basilar artery; relaxation of isolated basilar artery, read-out: ED50 (the source's name)): 11 µM
